Legend:
[1] = system: normal NK cells expanded with K562-aAPC; assay: percent inhibition of viability; higher = more inhibition; settings: 72 h, IL-2 2.5 ng/mL
Description: (§1)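 Drug sensitivity and resistance testing on K562-aAPC-expanded normal NK cells: 5 concentrations (10-fold steps over a 10,000-fold range), 72 h at 37 °C, viability by CellTiter-Glo normalised to DMSO and benzethonium chloride controls; DSS from the fitted curve.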

DERL-7 (IL-2 2.5 ng/mL) [2] = assay: as above; settings: 72 h
IMC-1 (IL-2 20 ng/mL) [3] = assay: as above; settings: 72 h
KAI3 (IL-2 2.5 ng/mL) [4] = assay: as above; settings: 72 h
KHYG-1 (IL-2 2.5 ng/mL) [5] = assay: as above; settings: 72 h
NK-92 (IL-2 2.5 ng/mL) [6] = assay: as above; settings: 72 h
NK-YS (IL-2 2.5 ng/mL) [7] = assay: as above; settings: 72 h
NKL (IL-2 2.5 ng/mL) [8] = assay: as above; settings: 72 h
SNK-6 (IL-2 2.5 ng/mL) [9] = assay: as above; settings: 72 h
YT (IL-2 2.5 ng/mL) [10] = assay: as above; settings: 72 h
[11] = system: normal primary NK cells, pool 1 (3 donors) (IL-2 2.5 ng/mL); assay: as above; settings: 72 h
[12] = system: normal primary NK cells, pool 1 (3 donors), resting (IL-2 0 ng/mL); assay: as above; settings: 72 h
[13] = system: normal primary NK cells, pool 2 (3 donors) (IL-2 2.5 ng/mL); assay: as above; settings: 72 h
[14] = system: normal primary NK cells, pool 3 (3 donors) (IL-2 2.5 ng/mL); assay: as above; settings: 72 h
[15] = system: normal NK cells expanded with K562-aAPC; assay: drug sensitivity score (DSS) (DSS units); higher = more sensitive; extreme values may be limits of the assay; settings: 72 h; IL-2 2.5 ng/mL
Description: as §1

DERL-7 (IL-2 2.5 ng/mL) [16] = assay: as above; settings: 72 h
IMC-1 (IL-2 20 ng/mL) [17] = assay: as above; settings: 72 h
KAI3 (IL-2 2.5 ng/mL) [18] = assay: as above; settings: 72 h
KHYG-1 (IL-2 2.5 ng/mL) [19] = assay: as above; settings: 72 h
NK-92 (IL-2 2.5 ng/mL) [20] = assay: as above; settings: 72 h
NK-YS (IL-2 2.5 ng/mL) [21] = assay: as above; settings: 72 h
NKL (IL-2 2.5 ng/mL) [22] = assay: as above; settings: 72 h
SNK-6 (IL-2 2.5 ng/mL) [23] = assay: as above; settings: 72 h
YT (IL-2 2.5 ng/mL) [24] = assay: as above; settings: 72 h
[25] = system: normal primary NK cells, pool 1 (3 donors) (IL-2 2.5 ng/mL); assay: as above; settings: 72 h
[26] = system: normal primary NK cells, pool 1 (3 donors), resting (IL-2 0 ng/mL); assay: as above; settings: 72 h
[27] = system: normal primary NK cells, pool 2 (3 donors) (IL-2 2.5 ng/mL); assay: as above; settings: 72 h
[28] = system: normal primary NK cells, pool 3 (3 donors) (IL-2 2.5 ng/mL); assay: as above; settings: 72 h

CC(C)CC(=O)Nc1n[nH]c2c1CN(C(=O)C1CCN(C)CC1)C2(C)C (max concentration tested 10000 nM)
percent inhibition of viability [%]
Settings | 1 nM | 10 nM | 100 nM | 1000 nM | 10000 nM
DERL-7 (IL-2 2.5 ng/mL) [2] | -3.18 | -3.13 | 19.6 | 55.2 | 100
IMC-1 (IL-2 20 ng/mL) [3] | 3.15 | 9.36 | 18 | 101 | 101
KAI3 (IL-2 2.5 ng/mL) [4] | 0.22 | 5.67 | 10.2 | 34.4 | 97.8
KHYG-1 (IL-2 2.5 ng/mL) [5] | 3.79 | 5.48 | 13.2 | 79.1 | 104
NK-92 (IL-2 2.5 ng/mL) [6] | -3.46 | 8.8 | 18 | 15.4 | 52.1
NK-YS (IL-2 2.5 ng/mL) [7] | -0.22 | 5.26 | 25.9 | 59.1 | 103
NKL (IL-2 2.5 ng/mL) [8] | 9.47 | 12.1 | 8.64 | 26 | 105
SNK-6 (IL-2 2.5 ng/mL) [9] | 1.24 | 13.9 | 17.6 | 21.7 | 77.7
YT (IL-2 2.5 ng/mL) [10] | 4.62 | 5.8 | 7.48 | 37.5 | 104
[1] | 1.26 | -0.23 | 9.16 | 24.6 | 84.3
[11] | 5.81 | -11.3 | 1.49 | 2.13 | 93.6
[12] | -13.4 | -45.2 | -20.7 | -66.9 | 85
[13] | -7.33 | 3.3 | 10.1 | 14.3 | 85.4
[14] | -6.64 | -10.6 | 9.27 | 6.31 | 54.5

Settings | drug sensitivity score
DERL-7 (IL-2 2.5 ng/mL) [16] | 13.1
IMC-1 (IL-2 20 ng/mL) [17] | 21
KAI3 (IL-2 2.5 ng/mL) [18] | 9.47
KHYG-1 (IL-2 2.5 ng/mL) [19] | 16.4
NK-92 (IL-2 2.5 ng/mL) [20] | 5.51
NK-YS (IL-2 2.5 ng/mL) [21] | 14.8
NKL (IL-2 2.5 ng/mL) [22] | 9.5
SNK-6 (IL-2 2.5 ng/mL) [23] | 6.8
YT (IL-2 2.5 ng/mL) [24] | 10.6
[15] | 7.91
[25] | 5.49
[26] | 3.02
[27] | 7.11
[28] | 3.98

CCc1cc(Nc2nccc(-c3c(-c4ccc(OC)c(C(=O)Nc5c(F)cccc5F)c4)nc4ccccn34)n2)c(OC)cc1N1CCC(N2CCN(S(C)(=O)=O)CC2)CC1 (max concentration tested 10000 nM)
percent inhibition of viability [%]
Settings | 1 nM | 10 nM | 100 nM | 1000 nM | 10000 nM
DERL-7 (IL-2 2.5 ng/mL) [2] | -3.29 | 4.96 | -4.2 | 9.43 | 2.99
IMC-1 (IL-2 20 ng/mL) [3] | -4.74 | -7.3 | -8.28 | -4.78 | -4.76
KAI3 (IL-2 2.5 ng/mL) [4] | 12.8 | 4.45 | 3.16 | -0.26 | -1.06
KHYG-1 (IL-2 2.5 ng/mL) [5] | -1.04 | -3.94 | -1.22 | -2.02 | -0.15
NK-92 (IL-2 2.5 ng/mL) [6] | -8.65 | -15.5 | 0.66 | 9.19 | 19.7
NK-YS (IL-2 2.5 ng/mL) [7] | -1.69 | -4.53 | 2.55 | 3.02 | 7.23
NKL (IL-2 2.5 ng/mL) [8] | -12.8 | -7.57 | -8.59 | -4.55 | -4.74
SNK-6 (IL-2 2.5 ng/mL) [9] | -2.73 | -8.81 | -9.86 | -16 | -27.5
YT (IL-2 2.5 ng/mL) [10] | 2.55 | -0.94 | 2.88 | -1.24 | 0.54
[1] | -0.94 | -0.53 | -2.18 | 1.87 | 0.97
[11] | -5.95 | -3.54 | 3.36 | -0.74 | -0.37
[12] | -6.68 | -7.72 | 5.14 | 4.15 | 11.5
[13] | -9.34 | 1.62 | -10.3 | -0.25 | -11.9
[14] | 1.45 | 1.94 | -1.25 | -1.57 | -1.55

Settings | drug sensitivity score
DERL-7 (IL-2 2.5 ng/mL) [16] | 0
IMC-1 (IL-2 20 ng/mL) [17] | 0
KAI3 (IL-2 2.5 ng/mL) [18] | 0
KHYG-1 (IL-2 2.5 ng/mL) [19] | 0
NK-92 (IL-2 2.5 ng/mL) [20] | 1.41
NK-YS (IL-2 2.5 ng/mL) [21] | 0
NKL (IL-2 2.5 ng/mL) [22] | 0
SNK-6 (IL-2 2.5 ng/mL) [23] | 0
YT (IL-2 2.5 ng/mL) [24] | 0
[15] | 0
[25] | 0
[26] | 0
[27] | 0
[28] | 0
